Assay results published in ChEMBL document CHEMBL1152471 (2008).

Legend:
Assay type in all cases: functional
[1] = test system: Mycobacterium tuberculosis; test: Antituberculosis activity against Mycobacterium tuberculosis by bactec MGIT 960 method
[2] = test system: Mycobacterium tuberculosis; test: Antituberculosis activity against Mycobacterium tuberculosis by bactec 460 TB method
[3] = test system: Mycolicibacterium smegmatis; test: Antituberculosis activity against linezolid-resistant Mycobacterium smegmatis without mutation in 23S rRNA

Measured: MIC

CC(=O)NC[C@H]1CN(c2ccc(N3CCOCC3)c(F)c2)C(=O)O1 [LINEZOLID]
4 µg/mL: all assays above
